Columns and labels:
Format in all cases: in vivo
ECHCG = test: Post-emergence herbicidal action, ECHCG; conditions: 80 g/ha, Table C
Outline: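 Weed and crop plants grown in sandy loam in the greenhouse, treated at the one-leaf stage 2–3 weeks after sowing. Damage scored visually after about 3 weeks vs untreated controls (0% = control, 100% = dead).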

Setaria viridis [1] = test: Pre-emergence herbicidal action, SETVI; conditions: dosage 320 g/ha, scored visually after 3 weeks vs untreated controls
Outline: (§1)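 Percent herbicidal activity rated by eye 3 weeks after pre-emergence soil-surface application, compared with untreated pots. Seeds sat under sandy loam; sprays carried 0.2% wetting agent.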

Stellaria media [2] = test: Pre-emergence herbicidal action, STEME; conditions: dosage 320 g/ha, scored visually after 3 weeks vs untreated controls
Outline: as §1

Amaranthus retroflexus [3] = test: Post-emergence herbicidal action, AMARE; conditions: 80 g/ha, Table D
Outline: (§2)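 Greenhouse-grown weeds in sandy loam, treated at the one-leaf stage 2 to 3 weeks after sowing with WP or EC formulations sprayed as aqueous suspension/emulsion at 600 to […] water plus 0.2% wetting agent. Visual scoring after about 3 weeks versus untreated controls, 0% (like control) to 100% (plants dead).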

Alopecurus myosuroides [4] = test: Post-emergence herbicidal action, ALOMY; conditions: 80 g/ha, Table C
Method: (§3) Seeds of monocotyledonous and dicotyledonous weed and crop plants are laid out in sandy loam soil in wood-fiber pots, covered with soil and cultivated in a greenhouse under good growth conditions. 2 to 3 weeks after sowing, the test plants are treated at the one-leaf stage. The compounds of the invention, formulated in the form of wettable powders (WP) or as emulsion concentrates (EC), are then sprayed onto the green parts of the plants in the form of an aqueous suspension or emulsion at a water application rate equating to […], with addition of 0.2% wetting agent. After the test plants have been left to stand in the greenhouse under optimal growth conditions for about 3 weeks, the action of the preparations is assessed visually in comparison to untreated controls (herbicidal action in percent (%): 100% activity=the plants have died, 0% activity=like control plants). […] At the same time, inventive compounds leave Gramineae crops such as barley, wheat, rye, millet/sorghum, corn or rice virtually undamaged when applied post-emergence, even at high active compound dosages. In addition, some substances are also harmless to dicotyledonous crops such as soya, cotton, oilseed rape, sugar beet or potatoes. Some of the compounds according to the invention have high selectivity and are therefore suitable for controlling unwanted vegetation in agricultural crops by the post-emergence method. The data of Tables C and D below illustrate, in an exemplary manner, the […] herbicidal action of the compounds according to the invention, the herbicidal activity being stated in percent.
(§4) For comparison, the herbicidal activity of numerous compounds according to the invention was tested with the structurally closest compounds known from the documents WO 2011/035874, WO 2012/028579 and WO 2012/126932, by the pre- and post-emergence method.

Amaranthus retroflexus [5] = test: Pre-emergence herbicidal action, AMARE; conditions: dosage 320 g/ha, scored visually after 3 weeks vs untreated controls
Outline: as §1

Viola tricolor [6] = test: Post-emergence herbicidal action, VIOTR; conditions: 80 g/ha, Table D
Outline: as §2

Setaria viridis [7] = test: Post-emergence herbicidal action, SETVI; conditions: 80 g/ha, Table C
Outline: as §2

Stellaria media [8] = test: Post-emergence herbicidal action, STEME; conditions: 80 g/ha, Table D
Outline: as §2

Pharbitis purpureum = test: Post-emergence herbicidal action, PHBPU; conditions: 80 g/ha, Table D
Outline: as §2

Abutilon theophrasti [9] = test: Post-emergence herbicidal action, ABUTH; conditions: 80 g/ha, Table D
Outline: as §2

Avena fatua [10] = test: Post-emergence herbicidal action, AVEFA; conditions: 80 g/ha, Table C
Method: as §3, §4

Avena fatua [11] = test: Pre-emergence herbicidal action, AVEFA; conditions: dosage 320 g/ha, scored visually after 3 weeks vs untreated controls
Outline: as §1

Abutilon theophrasti [12] = test: Pre-emergence herbicidal action, ABUTH; conditions: dosage 320 g/ha, scored visually after 3 weeks vs untreated controls
Outline: as §1

Alopecurus myosuroides [13] = test: Pre-emergence herbicidal action, ALOMY; conditions: dosage 320 g/ha, scored visually after 3 weeks vs untreated controls
Text: 1. Pre-Emergence Herbicidal Action Against Harmful Plants Seeds of monocotyledonous and dicotyledonous weed plants and crop plants are laid out in sandy loam soil in wood-fiber pots and covered with soil. The compounds of the invention, formulated in the form of wettable powders (WP) or as emulsion concentrates (EC), are then applied to the surface of the covering soil in the form of an aqueous suspension or emulsion at a water application rate equating to […], with addition of 0.2% wetting agent. After the treatment, the pots are placed in a greenhouse and kept under good growth conditions for the trial plants. The damage to the test plants is scored visually after a test period of 3 weeks by comparison with untreated controls (herbicidal activity in percent (%): 100% activity=the plants have died, 0% activity=like control plants).
as §4

Viola tricolor [14] = test: Pre-emergence herbicidal action, VIOTR; conditions: dosage 320 g/ha, scored visually after 3 weeks vs untreated controls
Outline: as §1

Matricaria inodora = test: Pre-emergence herbicidal action, MATIN; conditions: dosage 320 g/ha, scored visually after 3 weeks vs untreated controls
Outline: as §1

Cyperus serotinus = test: Pre-emergence herbicidal action, CYPES; conditions: dosage 320 g/ha, scored visually after 3 weeks vs untreated controls
Outline: as §1

Structure (SMILES) | Herbicidal activity ECHCG (ECHCG) [%] | herbicidal activity SETVI (Setaria viridis [1]) [%] | Herbicidal activity STEME (Stellaria media [2]) [%] | herbicidal activity AMARE (Amaranthus retroflexus [3]) [%] | herbicidal activity ALOMY (Alopecurus myosuroides [4]) [%] | herbicidal activity AMARE (Amaranthus retroflexus [5]) [%] | herbicidal activity VIOTR (Viola tricolor [6]) [%] | herbicidal activity SETVI (Setaria viridis [7]) [%] | Herbicidal activity STEME (Stellaria media [8]) [%] | Herbicidal activity PHBPU (Pharbitis purpureum) [%] | herbicidal activity ABUTH (Abutilon theophrasti [9]) [%] | herbicidal activity AVEFA (Avena fatua [10]) [%] | herbicidal activity AVEFA (Avena fatua [11]) [%] | herbicidal activity ABUTH (Abutilon theophrasti [12]) [%] | herbicidal activity ALOMY (Alopecurus myosuroides [13]) [%] | herbicidal activity VIOTR (Viola tricolor [14]) [%] | herbicidal activity MATIN (Matricaria inodora) [%] | herbicidal activity CYPES (Cyperus serotinus) [%]
CCSc1c(C(F)F)ccc(C(=O)Nc2ncnn2C)c1Br [Example 4-64] | 100 | 100 | 100 | 100 | 100 | 100 | 100 | 100 | 100 | 100 | 100 | 100 | 100 | 100 | 90 | 100 | 100 | –
CCS(=O)(=O)c1c(C(F)F)ccc(C(=O)Nc2nnc(C)o2)c1Br [Example 7-64] | 100 | 100 | 100 | 100 | 90 | – | 90 | 100 | 90 | 100 | 100 | 100 | 100 | 100 | 100 | 100 | 100 | 100
CCS(=O)(=O)c1c(C(F)F)ccc(C(=O)Nc2nnnn2C)c1I [Example 1-78] | 100 | 100 | – | 100 | 90 | 100 | 90 | 100 | 100 | 100 | 80 | 80 | 100 | 100 | 100 | 100 | 100 | 100
CCSc1c(C(F)F)ccc(C(=O)Nc2nnc(C)o2)c1C [Example 7-4] | 100 | 100 | 90 | 100 | 90 | 100 | 100 | 100 | 90 | – | – | 90 | – | 100 | 90 | 100 | 80 | –
CCn1nnnc1NC(=O)c1ccc(C(F)F)c(SC)c1C [Example 2-1] | 90 | 100 | – | 100 | 90 | 100 | 100 | 90 | 100 | 100 | 90 | 100 | 100 | 100 | 90 | 100 | 100 | –

From patent publication US20230183193A1, “4-DIFLUOROMETHYL BENZOYL AMIDES WITH HERBICIDAL ACTION” (BAYER CROPSCIENCE AKTIENGESELLSCHAFT, priority 2017, published 2023)
